Measured values reported in patent US6759403B2, “Metalloporphyrins and their uses as radiosensitizers for radiation therapy” (Brookhaven Science Associates, LLC, priority 2001, dated 2004).
Like-named read-outs stand apart in the source and are kept apart here.

Assays:
malignant brain tumors = details: clinical use of BPA; cited from earlier work
[1] = system: subcutaneous 9L gliosarcomas; test: Boron biodistribution after intravenous infusion in rat 9L gliosarcoma model (Examples 6 and 7); format: in vivo, Fischer 344 rats
Description: This example used the experimental rat 9L gliosarcoma model and the protocol used to administer porphyrins by intravenous infusion that were reported in J. NeuroOncol, 52, 111-117, 2001. Six (6) male Fischer 344 rats bearing subcutaneous 9L gliosarcomas were infused intravenously with CuTCPBr at a total dose of 220 μg/gbw over 48 hours. Tumor and blood were sampled from each at zero, one, two and three days after the end of infusion and the boron concentrations measured. In this example, the biodistribution of CuTCPBr was compared to CuTCPH. A group of six (6) male Fischer 344 rats bearing subcutaneous 9L gliosarcomas were infused intravenously with CuTCPBr at a total dose of 220 μg/gbw over 48 hours. A second group of four (4) male Fischer 344 rats bearing subcutaneous 9L gliosarcomas were infused intravenously with CuTCPH at a total dose of 195 μg/gbw. over 48 hours. Boron concentrations in tissues from both groups of rats were taken three days after the end of infusion. The results for the CuTCPBr group of rats are listed in column 2 of Table 6 and the results for the CuTCPH group of rats are listed in column 4 of Table 6. To account for the difference in porphyrin dose (195 μg/gbw for CuTCPH versus 220 μg/gbw for CuTCPBr) and the difference in % boron in each porphyrin (31.8% for CuTCPH versus 21.7 for CuTCPBr), the boron concentrations in tissues from rats given CuTCPBr were normalized so that they would be equivalent to the boron concentrations of rats given CuTCPH. This was done by multiplying the boron concentrations in the CuTCPBr group of rats by the CuTCPBr to CuTCPH boron dose ratio of 1.3. The normalized boron concentrations for the CuTCPBr group of rats are listed in column 3 of Table 6.

EMT-6 mammary carcinomas [2] = details: 180 μg/gbw CuTCPH, 6 ip injections over 2 days, cited from earlier work
EMT-6 mammary carcinomas [3] = test: CuTCPH boron biodistribution in EMT-6 tumor-bearing mice (prior results, Rad. Res. 155, 603-610, 2001); format: in vivo, BALB/c mice
Description: There is a larger vascular system surrounding the dorsal thorax compared with the leg, which may be a factor. However, in the case of CuTCPH, the boron concentration was 30% higher in leg tumors compared to back tumors. Normalizing to the slightly higher dose of the first study, the tumor boron concentration should be about 29 and 15 μg/g at 2d and 5d, respectively, which are still low. Studies are underway to repeat these experiments.
The biodistribution properties for CuTCPBr are similar to other lipophilic tetracarboranyl tetraphenylporphyrins studied previously, particularly the results for CuTCPH which were reported in Rad. Res. 155, 603-610, 2001 and are listed in columns four and five of Table 4. The CuTCPH results were based on two groups of seven (7) BALB/c mice which were given 180 μg/gbw CuTCPH in six intraperitoneal injections over 2 days. The first group of mice was euthanized two days after the last injection and the second group four days after the last injection. The boron concentrations in different tissues were then measured.

[4] = system: subcutaneous 9L gliosarcomas; test: CuTCPH dose increase and tumor boron concentration in rats with 9L gliosarcomas; format: in vivo, Fischer 344 rats
Text: Toxicity is the critical factor, and since no toxicity was observed, the dose can be increased to achieve tumor boron concentrations higher than those in Examples 2 and 3.

[5] = 195 μg/gbw CuTCPH (61.8 μg B/gbw) iv over 48 hours, 3 days after end of infusion

N[C@@H](Cc1ccc(B(O)O)cc1)C(=O)O [BPA, p-boronophenylalanine]
blood boron concentration relative to that found in tumor (malignant brain tumors): approximately one-third
brain boron concentration relative to that found in tumor (malignant brain tumors): approximately one-third
chemical toxicity associated with usage (malignant brain tumors): not eliciting any chemical toxicity

copper tetracarboranylmethoxyphenylporphyrin [CuTCPH]
Boron Concentration, Brain [1, 5]: 3.2 (1.4) μg/g
Boron Concentration, Kidney [1, 5]: 16 (2) μg/g
Boron Concentration, Lacrimal Gland [1, 5]: 45 (11) μg/g
Boron Concentration, Liver [1, 5]: 638 (53) μg/g
Boron Concentration, Lung [1, 5]: 83 (12) μg/g
Boron Concentration, Lymph Nodes [1, 5]: 284 (68) μg/g
Boron Concentration, Parotid Gland [1, 5]: 125 (26) μg/g
Boron Concentration, Spleen [1, 5]: 832 (169) μg/g
Boron Concentration, Tongue [1, 5]: 47 (11) μg/g
Boron Concentration, Tumor [1, 5]: 63 (23) μg/g
Boron concentration, Ears [1, 5]: 17 (3) μg/g
Toxicity ([1]; rats, 220 μg/gbw CuTCPBr or 195 μg/gbw CuTCPH iv over 48 hours): does not appear to be a major problem
Boron Concentration, Blood (EMT-6 mammary carcinomas [2]; after 2 days): 0 (0) μg/g
Boron Concentration, Brain (EMT-6 mammary carcinomas [2]; after 2 days): 0.2 (0.1) μg/g
Boron Concentration, Ears (skin) (EMT-6 mammary carcinomas [2]; after 2 days): 8.4 (2.1) μg/g
Boron Concentration, Liver (EMT-6 mammary carcinomas [2]; after 2 days): 562 (79) μg/g
Boron Concentration, Tumor (EMT-6 mammary carcinomas [2]; after 2 days): 62 (10) μg/g
Boron Concentration, Blood (EMT-6 mammary carcinomas [2]; after 4 days): 0.3 (0.1) μg/g
Boron Concentration, Brain (EMT-6 mammary carcinomas [2]; after 4 days): 0.7 (0.3) μg/g
Boron Concentration, Ears (skin) (EMT-6 mammary carcinomas [2]; after 4 days): 14 (2.6) μg/g
Boron Concentration, Liver (EMT-6 mammary carcinomas [2]; after 4 days): 534 (124) μg/g
Boron Concentration, Tumor (EMT-6 mammary carcinomas [2]; after 4 days): 71 (9) μg/g
decrease of liver boron from two to four days (EMT-6 mammary carcinomas [3]; 180 μg/gbw CuTCPH): 5%
boron concentration higher in leg tumors compared to back tumors (EMT-6 mammary carcinomas [3]; CuTCPH, leg versus back tumors): 30%
tumor boron concentration, median ([4]; CuTCPH total dose 195 mg/kg body weight): 64 µg/g
tumor boron concentration, median ([4]; CuTCPH total dose 450 mg/kg body weight): 117 µg/g
